Test results: patent publication US8084399B2, “Process for screening of a binding amphiphilic peptides specific for hairpin RNA” (priority 2009, dated 2011)
Where no end group is shown, it is not given here. [ ]: non-standard residue; d: D form. Orn = NCCC[C@H](N)C(=O)O; Dap = NC[C@H](N)C(=O)O

Tests used:
IRES RNA [1] = experiment: Tryptophan fluorescence strength on addition of target RNA; assay type: binding, HCV
Protocol: Fluorescence strength was measured to investigate target RNA binding of the third generation peptides. When tryptophan is activated by 285 nm light, it becomes fluorescent at the wavelength. Changes of fluorescence resulted from the binding respectively to different targets such as IRES, RRE, TAR and 16S A-site RNA, were measured. 0.02 equivalent of target RNA was added slowly to 1 uM peptide solution containing tryptophan.

RRE hairpin RNA = experiment: Fluorescence anisotropy competition with Rev-N-rhodamine probe, binding to RRE hairpin RNA; set-up: species or system HIV; conditions: 20° C., pH 7.4, read-out: Dissociation constant, RRE
How it was run: (§1)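 Competitive fluorescence anisotropy at 20° C in 20 mM HEPES pH 7.4, 140 mM NaCl, 5 mM KCl, 1 mM MgCl2. Heat-refolded target RNA bound to 10 nM Rev-N-rhodamine probe; peptide titrated until anisotropy returned to baseline, and Kd fitted from a competition binding equation.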

[2] = Circular dichroism (CD), percentage of alpha-helix; assay type: physicochemical; conditions: CD at 20° C., condition not given; for Alpha-helical rate (%), second value of pair: value after the slash; for Alpha-helical rate (%), first value of pair: value before the slash
How it was run: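 Spectra recorded at 20 °C, 190–250 nm, three averaged scans, background-corrected and converted to mean residue ellipticity. Helix fraction derived from [θ] at 222 nm relative to full-helix and random-coil reference values, which depend on residue number and temperature.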

TAR hairpin RNA = experiment: Fluorescence anisotropy competition with Rev-N-rhodamine probe, binding to TAR hairpin RNA; set-up: species or system HIV; conditions: fluorescence anisotropy, 20° C., pH 7.4; read-out: Dissociation constant, TAR
How it was run: as §1

IRES domain IV hairpin = experiment: Fluorescence anisotropy competition with Rev-N-rhodamine probe, binding to IRES hairpin; set-up: species or system HCV; conditions: for differentiation coefficient (IRES): (mean Kd to other hairpin RNA)/(Kd to one hairpin RNA); for binding strength to IRES, in words: compared with the original peptide; for Kd: fluorescence anisotropy, 20° C., pH 7.4, read-out: Dissociation constant, IRES
How it was run: as §1

16S ribosomal RNA A-site = experiment: Fluorescence anisotropy competition with Rev-N-rhodamine probe, binding to 16S A-site; conditions: 20° C., pH 7.4, read-out: Dissociation constant, 16S A-site
How it was run: as §1

IRES RNA [3] = experiment: Solid surface method (biotin peptide on streptavidin plate, isotope-labeled RNA) with or without tRNAmix; assay type: binding, HCV; conditions: comparison with/without tRNAmix, in words
Protocol: Solid surface method was performed to investigate specificity to target RNA of the third generation peptides. Particularly, biotin was conjugated to N-terminal of the peptide, resulting in the preparation for streptavidin binding. 5′-end of target RNA was labeled with an isotope. Streptavidin coated plate was prepared, to which the amphiphilic peptide was adhered at different concentrations. The plate was reacted with a certain amount of the isotope-labeled RNA, followed by washing. Only the RNA conjugated with the amphiphilic peptide was obtained. IC50 was calculated based on the concentration of the target RNA. Experiments were performed in the presence and in the absence of tRNA^mix (Sigma-Aldrich, Germany), and the results were compared.

| Substance | Fluorescence strength of tryptophan reduced by (IRES RNA [1]; wavelength moved to shorter site, IRES) [fold] | Kd (RRE hairpin RNA) [nM] | Alpha-helical rate (%), second value of pair [2] [%] | Alpha-helical rate (%), first value of pair [2] [%] | Kd (TAR hairpin RNA) [nM] | differentiation coefficient (IRES) (IRES domain IV hairpin) | binding strength to IRES, in words (IRES domain IV hairpin) | Kd (IRES domain IV hairpin) [nM] | Kd (16S ribosomal RNA A-site) [nM] | Fluorescence strength of tryptophan at #7 reduced from that of tryptophan at #14 of peptide 3h (IRES RNA [1]; in the presence of IRES) [fold] | IC50 to IRES RNA in the presence or in the absence of tRNAmix (IRES RNA [3]) |
| --- | --- | --- | --- | --- | --- | --- | --- | --- | --- | --- | --- |
| LKKLLKLLKKLLKWAG [2u, tryptophan scanned second generation peptide] | 1.6 | 18 | 52 | 20 | 7.8 | 14 | significantly increased | 0.69 | 3.3 | – | – |
| LKKLLKWLKKLLDapLAG (LKKLLKWLKKLL[Dap]LAG-NH2; N-terminus assumed; SMILES CC(C)C[C@H](NC(=O)[C@H](CN)NC(=O)[C@H](CC(C)C)NC(=O)[C@H](CC(C)C)NC(=O)[C@H](CCCCN)NC(=O)[C@H](CCCCN)NC(=O)[C@H](CC(C)C)NC(=O)[C@H](Cc1c[nH]c2ccccc12)NC(=O)[C@H](CCCCN)NC(=O)[C@H](CC(C)C)NC(=O)[C@H](CC(C)C)NC(=O)[C@H](CCCCN)NC(=O)[C@H](CCCCN)NC(=O)[C@@H](N)CC(C)C)C(=O)N[C@@H](C)C(=O)NCC(N)=O) [3c, third generation peptide, both faces modified] | – | 9.7 | 36 | 29 | 8.3 | 17 | – | 0.75 | 21 | – | – |
| LKKLLKWLKKLLKLAG [2q, tryptophan scanned second generation peptide] | – | 1.2 | 71 | 19 | 21 | 15 | significantly increased | 0.87 | 17 | – | – |
| LKKLLKWLOrnKLLDapLAG (LKKLLKWL[Orn]KLL[Dap]LAG-NH2; N-terminus assumed; SMILES CC(C)C[C@H](NC(=O)[C@H](CN)NC(=O)[C@H](CC(C)C)NC(=O)[C@H](CC(C)C)NC(=O)[C@H](CCCCN)NC(=O)[C@H](CCCN)NC(=O)[C@H](CC(C)C)NC(=O)[C@H](Cc1c[nH]c2ccccc12)NC(=O)[C@H](CCCCN)NC(=O)[C@H](CC(C)C)NC(=O)[C@H](CC(C)C)NC(=O)[C@H](CCCCN)NC(=O)[C@H](CCCCN)NC(=O)[C@@H](N)CC(C)C)C(=O)N[C@@H](C)C(=O)NCC(N)=O) [peptide 3d, third generation peptide, both faces modified] | – | 26 | 38 | 32 | 24 | 45 | – | 0.55 | 25 | 2.3 | not much different |
| LKKLLKWLOrnKLLKLAG (LKKLLKWL[Orn]KLLKLAG-NH2; N-terminus assumed; SMILES CC(C)C[C@H](NC(=O)[C@H](CCCCN)NC(=O)[C@H](CC(C)C)NC(=O)[C@H](CC(C)C)NC(=O)[C@H](CCCCN)NC(=O)[C@H](CCCN)NC(=O)[C@H](CC(C)C)NC(=O)[C@H](Cc1c[nH]c2ccccc12)NC(=O)[C@H](CCCCN)NC(=O)[C@H](CC(C)C)NC(=O)[C@H](CC(C)C)NC(=O)[C@H](CCCCN)NC(=O)[C@H](CCCCN)NC(=O)[C@@H](N)CC(C)C)C(=O)N[C@@H](C)C(=O)NCC(N)=O) [3b, third generation peptide, both faces modified] | – | 18 | 52 | 34 | 22 | 4.2 | – | 5.1 | 24 | – | – |
| LKKLLOrnLLKKLLKLAG (LKKLL[Orn]LLKKLLKLAG-NH2; N-terminus assumed; SMILES CC(C)C[C@H](NC(=O)[C@H](CCCCN)NC(=O)[C@H](CC(C)C)NC(=O)[C@H](CC(C)C)NC(=O)[C@H](CCCCN)NC(=O)[C@H](CCCCN)NC(=O)[C@H](CC(C)C)NC(=O)[C@H](CC(C)C)NC(=O)[C@H](CCCN)NC(=O)[C@H](CC(C)C)NC(=O)[C@H](CC(C)C)NC(=O)[C@H](CCCCN)NC(=O)[C@H](CCCCN)NC(=O)[C@@H](N)CC(C)C)C(=O)N[C@@H](C)C(=O)NCC(N)=O) [2a, second generation peptide, hydrophilic face modified] | – | 17 | 82 | 13 | 14 | 2.5 | – | 6.1 | 15 | – | – |
| LKKLWKLLKKLLKLAG [2p, tryptophan scanned second generation peptide] | – | 6.2 | 56 | 20 | 9.8 | 3.3 | – | 2.8 | 12 | – | – |
| LKKWLKLLKKLLKLAG [2o, tryptophan scanned second generation peptide] | – | 5.9 | 52 | 4.6 | 34 | 5.6 | – | 3.3 | 15 | – | – |
| WKKLLKLLKKLLKLAG [2n, tryptophan scanned second generation peptide] | – | 2.5 | 65 | 48 | 2 | 2.4 | significantly increased | 0.74 | 0.76 | – | – |
